From publication PMC9147192, “Small Molecule Arranged Thermal Proximity Coaggregation (smarTPCA)—A Novel Approach to Characterize Protein–Protein Interactions in Living Cells by Similar Isothermal Dose–Responses” (International Journal of Molecular Sciences, 2022)

Legend:
ANP32E = molecular target: T1, ANP32E (Homo sapiens, UniProt Q9BTT0); experiment: TPP-CCR in living HL-60 cells; format: cell-based
T1 construct: dose–responses (mean over replicates), derived from TPP-CCR experiments in living cells; endogenous in cells; host or cells: HL-60 cells (ATCC No. CCL-240)

CANX = molecular target: T2, CANX (Homo sapiens, UniProt P27824); experiment: TPP-CCR in living HL-60 cells; format: cell-based
T2 construct: endogenous in cells; host or cells: HL-60 (ATCC CCL-240)
T2 sequence (P27824 21-592): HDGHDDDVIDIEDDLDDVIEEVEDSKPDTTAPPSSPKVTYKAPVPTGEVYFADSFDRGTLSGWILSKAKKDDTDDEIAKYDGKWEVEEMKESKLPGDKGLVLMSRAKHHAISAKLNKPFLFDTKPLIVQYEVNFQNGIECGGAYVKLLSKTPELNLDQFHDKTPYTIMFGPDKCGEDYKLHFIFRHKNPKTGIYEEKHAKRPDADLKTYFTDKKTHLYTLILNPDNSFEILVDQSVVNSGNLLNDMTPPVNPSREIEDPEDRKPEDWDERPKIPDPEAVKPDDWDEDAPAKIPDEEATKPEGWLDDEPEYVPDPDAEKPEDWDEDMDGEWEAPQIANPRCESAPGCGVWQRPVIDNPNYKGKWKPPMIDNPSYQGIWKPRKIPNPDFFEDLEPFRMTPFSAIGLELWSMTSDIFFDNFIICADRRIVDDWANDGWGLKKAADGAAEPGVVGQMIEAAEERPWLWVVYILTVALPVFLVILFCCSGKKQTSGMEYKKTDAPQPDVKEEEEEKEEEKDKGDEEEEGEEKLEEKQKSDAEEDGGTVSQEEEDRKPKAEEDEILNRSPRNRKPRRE

[1] = living HL-60 cells, […] °C, TMT-MS

T1 sequence (Q9BTT0 whole entry): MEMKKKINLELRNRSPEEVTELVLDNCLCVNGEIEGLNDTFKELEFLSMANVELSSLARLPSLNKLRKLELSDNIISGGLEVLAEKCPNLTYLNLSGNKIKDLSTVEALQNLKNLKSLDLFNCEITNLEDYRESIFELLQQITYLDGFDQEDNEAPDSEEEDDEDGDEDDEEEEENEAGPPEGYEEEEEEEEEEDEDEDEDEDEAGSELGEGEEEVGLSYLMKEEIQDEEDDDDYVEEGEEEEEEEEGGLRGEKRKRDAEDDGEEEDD

Cc1cnc(Nc2ccc(F)cc2Cl)nc1-c1c[nH]c(C(=O)N[C@H](CO)c2cccc(Cl)c2)c1 [ERK 11e]
Hill slope (ANP32E; TPP-CCR, living cells, ANP32E): 0.58
Hill slope (ANP32E) (ANP32E; [1]): 0.58
EC50 (ANP32E; living HL-60 cells, […] °C, TMT-MS, read-out: pEC50 (ANP32E) (converted)): 166 nM
Hill slope (CANX; TPP-CCR, living cells, CANX): 0.80
EC50 (CANX; [1]): 871 nM
Hill slope (CANX) (CANX; [1]): 0.80
